According to ChEMBL document CHEMBL1140792, “Isothiazolidinone inhibitors of PTP1B containing imidazoles and imidazolines” (Bioorg Med Chem Lett, 2008):

Key:
[1] = molecular target: T1, Tyrosine-protein phosphatase non-receptor type 2 (Homo sapiens, UniProt P17706); test: Inhibition of TCPTP by pNPP assay
T1 sequence (P17706 whole entry): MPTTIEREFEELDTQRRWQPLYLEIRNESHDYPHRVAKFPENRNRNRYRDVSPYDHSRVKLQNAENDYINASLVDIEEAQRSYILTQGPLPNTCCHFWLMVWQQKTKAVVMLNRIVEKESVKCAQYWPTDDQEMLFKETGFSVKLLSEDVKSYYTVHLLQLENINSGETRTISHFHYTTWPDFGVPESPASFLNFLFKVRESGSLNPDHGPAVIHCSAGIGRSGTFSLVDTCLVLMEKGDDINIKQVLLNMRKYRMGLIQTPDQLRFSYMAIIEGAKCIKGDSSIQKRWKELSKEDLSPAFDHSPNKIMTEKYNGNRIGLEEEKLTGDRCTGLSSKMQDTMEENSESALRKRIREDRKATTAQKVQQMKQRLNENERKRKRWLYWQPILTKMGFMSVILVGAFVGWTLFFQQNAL

[2] = molecular target: T2, Tyrosine-protein phosphatase non-receptor type 1 (Homo sapiens, UniProt P18031); test: Inhibition of PTP1B by pNPP assay
T2 sequence (P18031 whole entry): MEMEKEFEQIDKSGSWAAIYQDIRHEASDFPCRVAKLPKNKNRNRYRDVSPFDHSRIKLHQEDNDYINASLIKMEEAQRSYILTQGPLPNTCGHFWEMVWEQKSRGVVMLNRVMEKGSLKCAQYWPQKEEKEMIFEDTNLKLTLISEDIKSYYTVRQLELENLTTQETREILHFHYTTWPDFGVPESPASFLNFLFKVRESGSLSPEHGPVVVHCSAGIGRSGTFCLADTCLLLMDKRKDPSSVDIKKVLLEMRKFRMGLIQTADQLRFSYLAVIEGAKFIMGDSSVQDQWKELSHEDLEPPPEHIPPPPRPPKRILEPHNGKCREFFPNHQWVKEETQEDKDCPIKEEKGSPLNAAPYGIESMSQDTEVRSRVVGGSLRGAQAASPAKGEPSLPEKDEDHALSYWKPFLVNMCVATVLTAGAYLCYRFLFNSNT

[3] = Selectivity for PTP1B over TCPTP

Structure (SMILES) | IC50 [1] | IC50 [2] | Ratio IC50 [3]
Cc1cc(CC(NS(=O)(=O)c2cccc(F)c2)c2ncc(CCCCOc3cccc(O)c3C(=O)O)[nH]2)ccc1C1CC(=O)NS1(=O)=O (configuration not stated) | 46 nM | 32 nM | 
O=C1CC(c2ccc(CC(NS(=O)(=O)c3cccc(F)c3)c3ncc(CCCc4ccccc4)[nH]3)cc2)S(=O)(=O)N1 (configuration not stated) | 24 nM |  | 
C[C@H]1CN=C(C(Cc2ccc(C3CC(=O)NS3(=O)=O)cc2)NS(=O)(=O)c2cccc(C(F)(F)F)c2)N1 (some centres not stated) | 670 nM | 810 nM | 
O=C1CC(c2ccc(CC(NS(=O)(=O)c3cccc(C(F)(F)F)c3)C3=NC[C@@H](c4ccccc4)N3)cc2)S(=O)(=O)N1 (some centres not stated) | 430 nM | 660 nM | 
O=C1CC(c2ccc(CC(NS(=O)(=O)c3cccc(F)c3)c3nc(-c4ccccc4)c[nH]3)cc2)S(=O)(=O)N1 (configuration not stated) | 90 nM | 160 nM | 
O=C1CC(c2ccc(CC(NS(=O)(=O)c3cccc(C(F)(F)F)c3)c3ncc(CCCc4ccccc4)[nH]3)cc2)S(=O)(=O)N1 (configuration not stated) | 51 nM | 52 nM | 
O=C1CC(c2ccc(CC(NS(=O)(=O)c3cccc(C(F)(F)F)c3)c3ncc[nH]3)cc2)S(=O)(=O)N1 (configuration not stated) | 270 nM | 240 nM | 
Cc1cc(CC(NS(=O)(=O)c2cccc(F)c2)C2=NC[C@@H](COc3cccc(S(C)(=O)=O)c3)N2)ccc1C1CC(=O)NS1(=O)=O (some centres not stated) | 470 nM | 800 nM | 
Cc1cc(CC(NS(=O)(=O)c2cccc(F)c2)c2ncc(CCCOc3cccc(O)c3C(=O)O)[nH]2)ccc1C1CC(=O)NS1(=O)=O (configuration not stated) | 170 nM | 120 nM | 
O=C1CC(c2ccc(CC(NS(=O)(=O)c3cccc(F)c3)c3ncc(CCc4ccccc4)[nH]3)cc2)S(=O)(=O)N1 (configuration not stated) | 100 nM | 180 nM | 
O=C1CC(c2ccc(CC(NS(=O)(=O)c3cccc(C(F)(F)F)c3)c3ncc(CCc4ccccc4)[nH]3)cc2)S(=O)(=O)N1 (configuration not stated) | 170 nM | 170 nM | 
COC(=O)c1c(O)cccc1OCCCCc1cnc(C(Cc2ccc(C3CC(=O)NS3(=O)=O)c(C)c2)NS(=O)(=O)c2cccc(F)c2)[nH]1 (configuration not stated) | 170 nM | 160 nM | 
COC(=O)c1c(O)cccc1OCCCc1cnc(C(Cc2ccc(C3CC(=O)NS3(=O)=O)c(C)c2)NS(=O)(=O)c2cccc(F)c2)[nH]1 (configuration not stated) | 170 nM | 350 nM | 
Cc1cc(CC(NS(=O)(=O)c2cccc(F)c2)C2=NC[C@@H](CCCOc3cccc(S(C)(=O)=O)c3)N2)ccc1C1CC(=O)NS1(=O)=O (some centres not stated) | 84 nM | 160 nM | 
O=C1CC(c2ccc(CC(NS(=O)(=O)c3cccc(F)c3)C3=NC[C@@H](Cc4ccccc4)N3)cc2)S(=O)(=O)N1 (some centres not stated) | 140 nM | 210 nM | 
O=C1CC(c2ccc(CC(NS(=O)(=O)c3cccc(F)c3)c3ncc(CCCCc4ccccc4)[nH]3)cc2)S(=O)(=O)N1 (configuration not stated) | 110 nM | 260 nM | 
O=C1CC(c2ccc(CC(NS(=O)(=O)c3cccc(C(F)(F)F)c3)c3ncc(-c4ccccc4)[nH]3)cc2)S(=O)(=O)N1 (configuration not stated) | 61 nM |  | 

Structure (SMILES) | IC50 [1] | IC50 [2] | Ratio IC50 [3]
Cc1cc(CC(NS(=O)(=O)c2cccc(F)c2)C2=NC[C@@H](CCOc3cccc(S(C)(=O)=O)c3)N2)ccc1C1CC(=O)NS1(=O)=O (some centres not stated) | 25 nM | 23 nM | 
COC(=O)c1c(O)cccc1OCCCC[C@@H]1CN=C(C(Cc2ccc(C3CC(=O)NS3(=O)=O)c(C)c2)NS(=O)(=O)c2cccc(F)c2)N1 (some centres not stated) | 65 nM | 110 nM | 
NC(=O)C(Cc1ccc(C2CC(=O)NS2(=O)=O)cc1)NS(=O)(=O)c1cccc(C(F)(F)F)c1 (configuration not stated) | 5000 nM | 5030 nM | 
Cc1cc(CC(NS(=O)(=O)c2cccc(F)c2)C2=NC[C@@H](CCCCOc3cccc(O)c3C(=O)O)N2)ccc1C1CC(=O)NS1(=O)=O (some centres not stated) | 46 nM | 22 nM | 2
O=C1CC(c2ccc(CC(NS(=O)(=O)c3cccc(C(F)(F)F)c3)c3ncc(Cc4ccccc4)[nH]3)cc2)S(=O)(=O)N1 (configuration not stated) | 230 nM |  | 
C[C@@H]1CN=C(C(Cc2ccc(C3CC(=O)NS3(=O)=O)cc2)NS(=O)(=O)c2cccc(C(F)(F)F)c2)N1 (some centres not stated) | 420 nM | 540 nM | 
O=C1CC(c2ccc(CC(NS(=O)(=O)c3cccc(C(F)(F)F)c3)c3nc4ccccc4[nH]3)cc2)S(=O)(=O)N1 (configuration not stated) | 43 nM |  | 
O=C1CC(c2ccc(CC(NS(=O)(=O)c3cccc(C(F)(F)F)c3)c3ncc(CCCCc4ccccc4)[nH]3)cc2)S(=O)(=O)N1 (configuration not stated) | 160 nM | 200 nM | 
O=C1CC(c2ccc(CC(NS(=O)(=O)c3cccc(C(F)(F)F)c3)C3=NC[C@H](c4ccccc4)N3)cc2)S(=O)(=O)N1 (some centres not stated) | 2070 nM | 2900 nM | 
CC1(C)CN=C(C(Cc2ccc(C3CC(=O)NS3(=O)=O)cc2)NS(=O)(=O)c2cccc(C(F)(F)F)c2)N1 (configuration not stated) | 700 nM | 930 nM | 
O=C1CC(c2ccc(CC(NS(=O)(=O)c3cccc(C(F)(F)F)c3)C3=NCCN3)cc2)S(=O)(=O)N1 (configuration not stated) | 500 nM | 700 nM | 
O=C1CC(c2ccc(CC(NS(=O)(=O)c3cccc(F)c3)c3ncc(Cc4ccccc4)[nH]3)cc2)S(=O)(=O)N1 (configuration not stated) | 270 nM | 250 nM | 
O=C1CC(c2ccc(CC(NS(=O)(=O)c3cccc(F)c3)C3=NC[C@@H](CCc4ccccc4)N3)cc2)S(=O)(=O)N1 (some centres not stated) | 68 nM | 130 nM | 
O=C1CC(c2ccc(CC(NS(=O)(=O)c3cccc(F)c3)C3=NC[C@@H](Cc4ccccc4F)N3)cc2)S(=O)(=O)N1 (some centres not stated) | 38 nM |  | 
O=C1CC(c2ccc(CC(NS(=O)(=O)c3cccc(C(F)(F)F)c3)C3=NC[C@H](Cc4ccccc4)N3)cc2)S(=O)(=O)N1 (some centres not stated) | 1100 nM | 1300 nM | 
O=C1CC(c2ccc(CC(NS(=O)(=O)c3cccc(C(F)(F)F)c3)C3=NC[C@@H](Cc4ccccc4)N3)cc2)S(=O)(=O)N1 (some centres not stated) | 120 nM | 150 nM | 
